Source: patent US20040009486A1, “Compositions and methods utilizing DNA polymerases” (priority 1999, published 2004)
Like-named read-outs stand apart in the source and are kept apart here.

How the values were obtained:
[1] = system: pBL25C and Temp-A, Temp-T, Temp-C, or Temp-G; assay: Rhodamine labeled ddNTP incorporation, TAMRA- and R110-ddNTPs (FIG. 16); format: biochemical
Protocol: These experiments were performed using 1 unit of enzyme, 15 nM primer:template (pBL25C and Temp-A, Temp-T, Temp-C, or Temp-G in four separate reactions), and 50 nM dye-ddNTP (TAMRA- or R110-labeled). The reactions were incubated at 60° C. for 10 minutes and then quenched with ice-cold 0.2 M EDTA (final concentration). The products were purified from unincorporated dye-labeled ddNTPs and analyzed as described above.
Relative incorporation of rhodamine labeled-ddNTPs by the JDF-3 P410L/A485T and Taq F667Y mutants was determined. We used both TAMRA- and R 110-labeled ddNTPs, and the amount of incorporated dye-ddNTPs was measured in fluorescense units. These experiments were performed using pBL25C as the primer, and Temp-A, Temp-T, Temp-C, or Temp-G as the complementary template in four separate reactions. The only difference between these four primer:template systems is the SNP site, thereby eliminating the possibility that primer:template sequence has an effect on dye-ddNTP incorporation. […] Gardner and Jack had also observed variation in the incorporation of ribonucleotides by the A488L mutant (equivalent to JDF-3 A485) of Vent DNA polymerase (from archaeon Thermococcus litoralis)^15.
We performed similar rhodamine labeled-ddNTP incorporation experiments using the same number of units of Taq F667Y.

[2] = system: pBL34A:pBluescript II; assay: Kinetics of TAMRA-ddATP insertion versus TAMRA-ddGTP misinsertion opposite dT; format: biochemical
Protocol: To determine the kinetics of misinsertion, the steady state Michaelis-Menten Km and Vmax parameters were calculated by incubations of limiting amounts of enzyme (0.1 units or 5 nM) in presence of 50 nM primer:template and varying concentrations of non-complementary rhodamine labeled ddNTP (1 nM to 10,000 nM) for 10 minutes at 60° C. Analysis and quantitations were performed as above.
To gain more insight into the mechanism of lower fidelity, we determined the misinsertion frequency for the mispair ddG:dT, which was evaluated in terms of relative Km and Vmax values for the wrong versus correct dye-ddNTP. Efficiency of nucleotide misinsertion was determined opposite a DNA template dT, primed with a 34-nucleotide oligomer (pBL34A). Apparent Michaelis constant (Km) and maximum velocity (Vmax) and relative insertion frequencies were measured for ddATP and ddGTP (Table X).
To determine the kinetics of misinsertion, Km and Vmax values were calculated by incubating limiting amounts of enzyme (0.1 units, 5 nM) in presence of 50 nM primer:template (pBL34A:pBluescript II) and varying concentrations of non-complementary rhodamine-ddGTP (1-10,000 nM) for 10 minutes at 60° C. Analysis and quantitation were performed as above.

[3] = system: primer:template; assay: Fidelity screen with rhodamine labeled non-complementary ddNTP; format: biochemical; details: R110-labeled incorrect ddNTP
Protocol: Reactions (10 μl) contained 1 unit of enzyme in 1× reaction buffer, 15 nM primer template, 25 nM of unlabeled complementary ddNTP, and 25, 100, 500, or 1000 nM of rhodamine labeled non-complementary ddNTP in four separate reactions. The reactions were incubated in a Perkin-Elmer 9600 for 25 cycles as follows: 96° C. for 10 s, 50° C. for 5 s, and 60° C. for 30 s. The reactions were then quenched with ice-cold 0.2 M EDTA (final concentration) and the products were purified from unincorporated rhodamine labeled ddNTPs and analyzed as described above.
Fidelity was determined as the tendency of a DNA polymerase to incorporate the correct nucleotide in the presence of increasing amounts of a non-complementary nucleotide. These assays employed constant amounts of primer:template, an unlabeled complementary ddNTP and DNA polymerase, and various concentrations of a rhodamine-labeled non-complementary ddNTP, as described in the Experimental Protocol. The amount of misextended primers is plotted against the ratio of rhodamine-labeled incorrect ddNTP/unlabeled correct ddNTP (FIG. 18 panels A and B). We performed similar assays for all possible mispairs (Table IX).
To address these concerns, the insertion fidelity of the JDF-3 P410L/A485T and Taq F667Y mutants was compared. In the first set of fidelity assays, a constant amount of primer:template, an unlabeled complementary ddNTP, and increasing concentrations of R110-labeled non-complementary ddNTP was used (Materials and Methods). […] The amount of misextended primers was determined and plotted against the ratio of R110-labeled incorrect ddNTP/unlabeled correct ddNTP (FIG. 27, panels A and B). Similar assays for all 12 possible mispairs was performed (ddG:dT, ddT:dG, ddT:dC, ddC:dT, ddC:dA, ddA:dC, ddA:dG, ddG:dA, ddT:dT, ddC:dC, ddA:dA, ddG:dG). […] The other mispairs are formed less frequently, and at similar rates for the JDF-3 P410L/A485T and Taq F667Y mutants (data not shown).
Fidelity assays using labeled ddNTPs (10 μl) contained 1 unit DNA polymerase in 1× reaction buffer, 15 nM primer: template, 25 nM of unlabeled complementary ddNTP, and 25, 100, 500, or 1000 nM of rhodamine-labeled non-complementary ddNTP in four separate reactions. The reactions were incubated in a Perkin-Elmer 9600 for 25 cycles as follows: 96° C. for 10 s, 50° C. for 5 s, and 60° C. for 30 s. The reactions were quenched and analyzed as above.

[4] = system: pFL-35:pBluescript; assay: Fidelity assay with unlabeled ddNTPs; format: biochemical; details: compared to JDF-3 P410L/A485T
Protocol: A second set of fidelity assays was conducted to address the contribution of rhodamine dye to high ddG:dT and ddT:dC misinsertion frequency. A fluorescently labeled primer (2.5 nM pFL35) opposite dT in the template strand was extended, in reactions containing either correct (ddA) or incorrect (ddG) unlabeled ddNTPs (at concentrations of 1.25 nM to 10 nM) ([…]). Similar experiments were performed in which primer extension occured opposite dC in the template strand, in the presence of correct (ddG) or incorrect (ddT) unlabeled ddNTPs (FIG. 28 panel B). Incorporation of ddNMP at the 3′-end of the primer was detected as a shift in primer mobility.
Fidelity assays using unlabeled ddNTPs (10 μl) contained 2.5 nM primer:template (pFL-35:pBluescript), 1 U DNA polymerase, and 1× reaction buffer. Complementary or non-complementary ddNTP was added to the reaction at concentrations of 0, 1.25, 10, 50, or 100 nM. The reactions were incubated in a Perkin-Elmer 9600 for 25 cycles as follows: 96° C. for 10 s, 50° C. for 5 s, and 60° C. for 30 s, and then analyzed as describe above.

[5] = literature values; cited from earlier work

## Taq F667Y: ThermoSequenase, Taq F667Y mutant DNA polymerase from Amersham Pharmacia Biotech
[1]
  preference order of ddNTP bases: G>C>A>T
[2]
  Km for wrong nucleotide (ddGTP) opposite dT, lower than JDF-3 P410L/A485T: 7 fold
  misinsertion frequency for ddG:dT, higher than JDF-3 P410L/A485T: ~17 fold
[2]; ddG:dT mispair
  M.F. (M.E./I.E.) misinsertion frequency: 0.053
[2]; listed as Taq F667Y mutant
  misinsertion frequency for ddG:dT, higher than JDF-3 P410L/A485T: approximately 17 fold
[2]; opposite dT, pBL34A primer
  I.E. Vmax, TAMRA-ddATP insertion: 1.9
  M.E. Vmax, TAMRA-ddGTP misinsertion: 16.9
[2]; opposite dT, pBL34A primer, read-out: I.E. Km, TAMRA-ddATP insertion
  Km: 0.0006 µM
[2]; opposite dT, pBL34A primer, read-out: M.E. Km, TAMRA-ddGTP misinsertion
  Km: 0.1 µM
[3]
  ddG:dT mispair formation frequency, higher than JDF-3 P410L/A485T: 20 fold
  ddT:dC mispair formation frequency, higher than JDF-3 P410L/A485T: 3 fold
[4]
  misincorporation of unlabeled ddNTPs: greater tendency to misincorporate unlabeled ddG opposite dT, and unlabeled ddT opposite dC
[5]
  dideoxynucleotide incorporation relative to unmutated / wild type enzyme: 3000-8000 fold
